Four molecules from US20040152650A1, “Preventing ischemia-induced cell damage” (priority 2002, published 2004) can be followed below.

Test [1] concerns cardiac myocytes. In words: Peptide protection against hypoxia-acidosis death (DNA fragmentation analyses). Type of test: cell-based, rat. Particulars: peptide 10 PM (20 μg/ml); for protection against hypoxia-acidosis death: 24-48 h hypoxia with acid accumulation; for protection (quantitative DNA fragmentation analyses): n=3. How it is done:
(§1) Quantitative Analysis of Apoptosis. Cells were examined for morphologic evidence of apoptosis or necrosis by staining with anti-myosin antibody and the fluorescent DNA-binding dyes Hoechst 33342 and propidium iodide (PI), exactly as previously described (26;30). Genomic DNA fragmentation analyses were also as described previously (26;30).
Peptides were added to cardiac myocyte cultures at a concentration of 10 PM (20 μg/ml) in serum-free defined medium (DMEM/high glucose/TIB) as described previously (26). Control cultures contained 20 μg/ml BSA. Cultures were exposed to 24-48 h of hypoxia with acid accumulation, also as described previously (26). The results using peptide 1 (23 aa N-BNIP3) are shown in FIG. 7 (−is control +is with peptide treatment).

The test system of test [2] is cardiac myocytes. In words: DNA fragmentation in cardiac myocytes subjected to hypoxia-acidosis. Format: cell-based, rat. The note with it: for Fragmentation of cardiac myocyte DNA by hypoxia-acidosis with MPTP inhibitor: 48 h time point, DUB 200 μM; for protection against DNA fragmentation with MPTP inhibitor: after 72 h hypoxia-acidosis. How it is done: Cardiac Myocyte Culture and Hypoxia. Methods utilized for the isolation and culture of primary neonatal rat cardiac myocytes and exposure to hypoxia have been described previously (28;29). Experiments were performed in defined serum-free DMEM/M-199 (4:1) medium. Oxygen was continuously monitored and maintained at <10 mm Hg.
as §1
Antisense. Antisense oligonucleotides were complementary to bases 10-40 and 600-630 of the BNIP3 gene; sequences 5′[…] (SEQ ID NO:1) and 5′[…] (SEQ ID NO:2) respectively. Random sequence oligonucleotides contained the same bases in a scrambled sequence. FITC-tagged oligonucleotides (2 μM final of each) in DMEM were mixed with lipofectamine (0.1 μg/ml, final concentration) and incubated with cardiac myocytes at 37° C. for 8 hours before treatments. Immediately before exposing to hypoxia, fresh medium with oligonucleotides was added. Fluorescence was visualized after 24, 36, and 48 hrs of exposure to hypoxia. Fresh oligonucleotides (400 nM) were added at 24 and 36 hrs.

On to “GRKKRRQRRRPPQC-----MSQSGEENLQGSWVELHFSNGNG-(C-term) (GRKKRRQRRRPPQCMSQSGEENLQGSWVELHFSNGNG; Synthetic Peptide Fragments) [Peptide 1, TAT-peptide containing N-terminal amino acids 1-23 of BNIP3]”, for which the “protection against hypoxia-acidosis death” value with cardiac myocytes [1] was “strong and significant protection”. The “protection (quantitative DNA fragmentation analyses)” value with cardiac myocytes [1] (24 h hypoxia with acid accumulation) and in the test with cardiac myocytes [1] (48 h hypoxia with acid accumulation) was above 50% in each case.
As to `CO[C@H](C/C=C\C=C\CC/C=C/C[C@H](C)/C=C/C(=C\C(=O)O)CC(=O)O)/C(C)=C\C=C(/C)C(=O)O` [BA, bongrekic acid], in the test on cardiac myocytes [2], the “Fragmentation of cardiac myocyte DNA by hypoxia-acidosis with MPTP inhibitor” value is reported as “blocked” and the “protection against DNA fragmentation with MPTP inhibitor” value is reported as “mediated protection”.
With `CCCCCCCCCCC1=C(C)C(=O)C(OC)=C(OC)C1=O` [DUB, decylubiquinone], in the test on cardiac myocytes [2], the “Fragmentation of cardiac myocyte DNA by hypoxia-acidosis with MPTP inhibitor” value is reported as “blocked” and the “protection against DNA fragmentation with MPTP inhibitor” value is listed as “mediated protection”.
For “GRKKRRQRRRPPQC----GDMEKILLDAQHESGRSSKSSHCDSP-(C-term) (GRKKRRQRRRPPQCGDMEKILLDAQHESGRSSKSSHCDSP; Synthetic Peptide Fragments) [Peptide 2, TAT-peptide containing N-terminal amino acids 24-49 of BNIP3]”, the “protection against hypoxia-acidosis death” value in the test with cardiac myocytes [1] was “less effective”.
